According to ChEMBL document CHEMBL1201862, “PubChem BioAssay data set” (2004):
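Compound exposure: 48 hours, 5 concentrations, 96-well plates. GI50 is the concentration that inhibits growth by half.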 Calls of active or inactive are those of the source. Cut-off read from the data, not from the text of the source: active = GI50 up to about 1.1 µM and inactive = higher.

What was measured:
Test in all cases: NCI-60 cell line screen, 48 h
[1] = system: A549
[2] = system: CAKI-1
[3] = system: CCRF-CEM
[4] = system: HCT-116
[5] = system: HOP-92
[6] = system: IGROV-1
[7] = system: M14
[8] = system: NCI-H460
[9] = system: SF-295
[10] = system: SK-MEL-2
[11] = system: SK-MEL-5
[12] = system: SK-OV-3
[13] = system: SNB-75
[14] = system: SNB-78
[15] = system: SR
[16] = system: SW-620
[17] = system: BT-549
[18] = system: MDA-N
[19] = system: NCI/ADR-RES
[20] = system: PC-3

| SMILES | GI50 [1] | GI50 [2] | GI50 [3] | GI50 [4] | GI50 [5] | GI50 [6] | GI50 [7] | GI50 [8] | GI50 [9] | GI50 [10] | GI50 [11] | GI50 [12] | GI50 [13] | GI50 [14] | GI50 [15] | GI50 [16] | GI50 [17] | GI50 [18] | GI50 [19] | GI50 [20] |
| --- | --- | --- | --- | --- | --- | --- | --- | --- | --- | --- | --- | --- | --- | --- | --- | --- | --- | --- | --- | --- |
| CCOC(=O)C[C@@]12CCCN[C@]1(C)CCc1ccccc12 | > 100 µM (inactive) | > 100 µM (inactive) | > 100 µM (inactive) | > 100 µM (inactive) | 97.1 µM (inactive) | > 100 µM (inactive) | > 100 µM (inactive) | > 100 µM (inactive) | > 100 µM (inactive) | > 100 µM (inactive) | > 100 µM (inactive) | > 100 µM (inactive) | > 100 µM (inactive) | > 100 µM (inactive) | > 100 µM (inactive) | > 100 µM (inactive) | – | – | – | – |
| O=C(NCc1ccccc1)c1cc2cc(O)c(O)cc2cn1 | 29 µM (inactive) | 35.6 µM (inactive) | 6.4 µM (inactive) | 30.3 µM (inactive) | 39.1 µM (inactive) | 30.3 µM (inactive) | 16.6 µM (inactive) | 9.79 µM (inactive) | 24.3 µM (inactive) | 46.3 µM (inactive) | 22.8 µM (inactive) | 40.8 µM (inactive) | 23.8 µM (inactive) | 50.5 µM (inactive) | 13.8 µM (inactive) | 42.6 µM (inactive) | – | – | – | – |
| CC(C)(C)C(=O)Nc1cccc2oc(-c3ccccc3)cc12 | > 100 µM (inactive) | > 100 µM (inactive) | > 100 µM (inactive) | – | 56.2 µM (inactive) | > 100 µM (inactive) | > 100 µM (inactive) | > 100 µM (inactive) | > 100 µM (inactive) | > 100 µM (inactive) | – | > 100 µM (inactive) | 85.1 µM (inactive) | 14.1 µM (inactive) | 88.5 µM (inactive) | > 100 µM (inactive) | – | – | – | – |
| O=S(=O)(c1ccccc1)N1N=C2c3ccccc3CCC[C@H]2C1c1ccccc1 (stereo partly specified) | > 100 µM (inactive) | > 100 µM (inactive) | > 100 µM (inactive) | > 100 µM (inactive) | > 100 µM (inactive) | > 100 µM (inactive) | > 100 µM (inactive) | 98.6 µM (inactive) | > 100 µM (inactive) | > 100 µM (inactive) | > 100 µM (inactive) | 34.2 µM (inactive) | > 74.6 µM (inactive) | > 100 µM (inactive) | 95.7 µM (inactive) | > 100 µM (inactive) | – | – | – | – |
| CCc1ccccc1NC(=O)CCc1nnc(S)[nH]1 | > 100 µM (inactive) | > 100 µM (inactive) | > 100 µM (inactive) | > 100 µM (inactive) | > 100 µM (inactive) | > 100 µM (inactive) | > 100 µM (inactive) | > 100 µM (inactive) | > 100 µM (inactive) | > 100 µM (inactive) | > 100 µM (inactive) | > 100 µM (inactive) | > 100 µM (inactive) | > 100 µM (inactive) | > 100 µM (inactive) | > 100 µM (inactive) | – | – | – | – |
| FC(F)(F)c1ccccc1/C=N/C12CC3CC(CC(C3)C1)C2 | > 100 µM (inactive) | > 100 µM (inactive) | – | > 100 µM (inactive) | – | > 100 µM (inactive) | > 100 µM (inactive) | > 100 µM (inactive) | > 100 µM (inactive) | > 100 µM (inactive) | 6.03 µM (inactive) | > 100 µM (inactive) | 86.1 µM (inactive) | > 100 µM (inactive) | > 100 µM (inactive) | > 100 µM (inactive) | – | – | – | – |
| CS(=O)(=O)OCCN(CCOS(C)(=O)=O)c1ccc(/C=N/c2ccc3oc(=O)ccc3c2)cc1 | 3.47 µM (inactive) | 0.622 µM (active) | 0.871 µM (active) | 37.7 µM (inactive) | 12.3 µM (inactive) | 12 µM (inactive) | 2.82 µM (inactive) | 0.0313 µM (active) | 0.933 µM (active) | 15.8 µM (inactive) | 7.08 µM (inactive) | 1.11 µM (active) | 2.43 µM (inactive) | 2.12 µM (inactive) | 0.395 µM (active) | 14.2 µM (inactive) | 10.5 µM (inactive) | 10.9 µM (inactive) | 8.59 µM (inactive) | 16.6 µM (inactive) |
| ClC(Cl)=C1C(=C(Cl)Cl)C(Cl)(Cl)C1(Cl)Cl | 9.51 µM (inactive) | 2.89 µM (inactive) | 0.101 µM (active) | 1.36 µM (inactive) | 1.24 µM (inactive) | 5.55 µM (inactive) | 1.06 µM (active) | 3.93 µM (inactive) | 2.48 µM (inactive) | 1.29 µM (inactive) | 2.82 µM (inactive) | 14.9 µM (inactive) | 3.18 µM (inactive) | 2.34 µM (inactive) | 0.214 µM (active) | 1.18 µM (inactive) | 2.77 µM (inactive) | 1.37 µM (inactive) | – | 2.31 µM (inactive) |
| CSc1nc(NC2OCC(OC(C)=O)C(OC(C)=O)C2OC(C)=O)c(/N=C\C=N\c2c(NC3OCC(OC(C)=O)C(OC(C)=O)C3OC(C)=O)nc(SC)[nH]c2=O)c(=O)[nH]1 (stereo unspecified) | > 100 µM (inactive) | > 100 µM (inactive) | > 54.8 µM (inactive) | > 80.2 µM (inactive) | 35.5 µM (inactive) | > 93.1 µM (inactive) | > 100 µM (inactive) | > 100 µM (inactive) | > 66.8 µM (inactive) | > 100 µM (inactive) | > 100 µM (inactive) | 28.9 µM (inactive) | 19.9 µM (inactive) | > 94.6 µM (inactive) | > 100 µM (inactive) | > 100 µM (inactive) | 55.2 µM (inactive) | > 100 µM (inactive) | 34.3 µM (inactive) | – |
| O=C(O)CCC(NC(=O)c1ccc(Nc2nc3ccccc3nc2-c2cccs2)cc1)C(=O)O (stereo unspecified) | > 100 µM (inactive) | > 100 µM (inactive) | > 100 µM (inactive) | > 100 µM (inactive) | > 100 µM (inactive) | > 100 µM (inactive) | > 100 µM (inactive) | > 100 µM (inactive) | > 100 µM (inactive) | > 100 µM (inactive) | > 100 µM (inactive) | > 100 µM (inactive) | > 100 µM (inactive) | > 100 µM (inactive) | > 100 µM (inactive) | > 100 µM (inactive) | – | – | – | – |
| N#CC(C#N)=C(C(C#N)C#N)C(C#N)C#N | > 100 µM (inactive) | > 100 µM (inactive) | > 100 µM (inactive) | > 100 µM (inactive) | > 100 µM (inactive) | > 100 µM (inactive) | > 100 µM (inactive) | > 100 µM (inactive) | > 100 µM (inactive) | – | > 100 µM (inactive) | > 100 µM (inactive) | > 100 µM (inactive) | > 100 µM (inactive) | > 100 µM (inactive) | > 100 µM (inactive) | – | – | – | – |
